In patent US20100273656A1, “COMPOSITION AND METHOD FOR SELECTIVE HERBICIDE” (priority 2002, published 2010):

Key:
grass = assay: Example 2 field test of FeEDDS and FeHEDTA at pH 3 and 7, grass; format: in vivo; details: in vivo
Description: (§1) The following non-limiting examples serve to further describe the invention. Unless otherwise specified, all of the iron solutions were made using the same molar concentration of iron ion as chelating agent. All of the outside tests were done on areas of mixed grass and dandelions that were at least 2 months old. For the greenhouse tests, dandelions were grown in a commercial greenhouse mix, using supplemental lighting and heating. Each plant was grown in a 2¼ inch pot to a minimum diameter of 20 cm. All of the solutions were sprayed onto the plants at a rate of 100 ml/m^2. The ferrous sulfate formulations that were used in examples 1, 2, 8 and 9 contained 1% iron (180 mM), 18 mM EDTA, 1% citric acid and 0.5% urea. In all of the examples, the amount of iron is identified in brackets as the percent iron on a weight basis.
(§2) All plant damage was assessed using a qualitative rating scale from 0 to 9.
The FeEDDS and FeHEDTA solutions contained 0.2% Fe^+3 (35.8 mM). The ferrous sulfate contained 1% Fe^+2 (179.1 mM). The solutions were sprayed at a rate of 0.1 L/m^2 onto 2 plots of 0.5 m^2 of mixed grass and dandelions. Observations were made 4 days after spraying.

dandelions = assay: Example 6 various Fe chelates, dandelion phytotoxicity; format: in vivo, Taraxacum officinale
Description: as §1, §2
This test compared EDG (ethanol diglycine) and EDDS at 0.4% Fe+3 (71.6 mM), with HEDTA 0.2% Fe+3 (35.8 mM). FeEDDS and FeEDG were made with 100% excess chelating agent. FeHEDTA was made with 10% excess chelating agent. The solutions were sprayed onto greenhouse grown dandelions. The plants were resprayed after 7 days.

daisy (Bellis perennis) = assay: Example 11 field test, daisy in lawn; format: in vivo
Description: Killex® (Green Cross, Ontario, Canada) is a commonly used selective lawn herbicide and was included in several field tests as a standard. Killex contains 2,4-D (9.5%), mecoprop (5%) and dicamba (0.9%). The product was diluted 6 ml into 1 L of water solution and applied at rate of 200 ml/m^2, as per label instructions.
This test investigated the effect of FeHEDTA and a mixture of FeEDDS and FeMGDA on daisy (Bellis perennis), dandelion (Taraxacum officinale) and a turf bentgrass (Agrostis sp.). The chelating agents were used at one and a half times the molar amount of iron. The FeHEDTA solutions contained 0.2% iron (35.8 mM). The commercially prepared FeHEDTA product from the Monterey Chemical Company (CA, USA) was used as a standard. The (FeEDDS+FeMGDA) solutions contained 0.4% iron (71.6 mM) and the same molar amount of EDDS and MGDA. The solutions were made from NaEDDS (Octaquest E30, Octel) and NaMGDA (Trilon M liquid, BASF, Germany). Ammonium sulfate was added at a concentration of 1%. Killex (Solaris ON, Canada) was diluted and applied as per label instructions of 6 ml/L applied at 200 ml/m^2.
The daisy (0.25 m^2) and dandelion (0.5 m^2) test plots were in different areas of the bentgrass field. The dandelions were large, averaging 30 cm in diameter. The daisy patches were between 10 and 20 cm in diameter. The plants were sprayed weekly 4 times.

[1] = test system: chickweed scarlet pimpernel (Anagallis arvensis); assay: Example 12 FeHEDTA field test, chickweed scarlet pimpernel; format: in vivo; details: for Survival of Chickweed Plants (%): day 7/day 0
Description: This test evaluated FeHEDTA with 0.15% and 0.2% Fe for controlling the chickweed scarlet pimpernel (Anagallis arvensis) and dandelion (Taraxacum officinale). The solution contained 1.3 times the molar amount of chelating agent as iron. Field areas of well established chickweed and dandelion (0.5 m^2) were sprayed at a rate of 100 ml/m^2.

white clover = assay: Example 17 iron chelates with Killex, white clover; format: in vivo
Description: (§3) Plants were fertilized with an all purpose water-soluble fertilizer mix of 20-20-20 (N-P-K; Plant-Prod®) as needed. All broadleaf weeds were grown individually in a 2¼-inch pot until they were a suitable size for herbicide tests (actual weed size is reported in examples below). Perennial ryegrass was also grown in 2¼-inch pots, however many grass seeds were sown in the pot to simulate a small section of turf. Grass plants were continually trimmed to a height of 4 cm, simulating that of a homeowner's lawn. For field tests, plots ¼ m^2 in size were marked out in areas containing the targeted broadleaf weed species growing in turf grass. Plots were continually mowed to simulate a homeowner's lawn. […] In all of the examples, the amounts of the various herbicide components are identified as a percent on a weight basis.
(§4) Killex® (Scotts Canada, Ltd., Ontario, Canada) is a commonly used selective lawn herbicide and was used as the commercial herbicide for herbicide combinations. The labeled dilution and application rates for Killex® are 6 ml into 1 L of solution (0.6%) applied at 200 ml/m^2.
(§5) All visual plant damage assessments were made using a quantitative rating scale; percent control relative to the untreated check (0=no effect; 100=plant death).
(§6) Materials and Methods: This trial was conducted in the greenhouse. Nine pots of white clover and 10 pots of perennial ryegrass were selected for each treatment. Herbicidal solutions were prepared using deionized water. The treatments were applied using a handheld trigger sprayer at 200 ml/m^2. All treatments were applied once. Phytotoxicity (%) was assessed 4, 7, and 14 days after application (A4, A7, and A14).

broadleaf plantain = assay: Example 19 FeHEDTA with Killex at reduced rates, broadleaf plantain; format: in vivo; details: Killex ® 0%, 7 days after application
Description: as §3, §4, §5
as §6, with “Ten broadleaf plantain plants” for “Nine pots of white clover”, “5” for “10”, “Herbicide” for “Herbicidal”, “hand-trigger” for “handheld trigger”, “7” for “4, 7, and 14”, “(A7).” for “(A4, A7, and A14).”

## O=C([O-])CN(CCO)CCN(CC(=O)[O-])CC(=O)[O-].[Fe+3] [FeHEDTA]
grass; pH 2.6
  Grass Damage (0 to 9): 0.0 0 to 9
grass; pH 7
  Grass Damage (0 to 9): 1.0 0 to 9
dandelions; 7 + 5 days after spraying
  Dead Plants (#/10): 3 #/10
dandelions; 7 + 5 days after spraying (resprayed after 7 days)
  Plant Damage (0 to 9): 8.1 0 to 9
dandelions; 7 days after spraying
  Plant Damage (0 to 9): 1.3 0 to 9
Daisy (Bellis perennis); day 0 (start of test)
  Plot Area Covered by Daisy Plants (%): 60%
Daisy (Bellis perennis); day 2
  Daisy Necrosis (%): 20%
Daisy (Bellis perennis); day 10
  Daisy Necrosis (%): 95%
Daisy (Bellis perennis); day 13, sprayed weekly 4 times
  Plot Area Covered by Daisy Plants (%): 1%
Daisy (Bellis perennis); day 16
  Daisy Necrosis (%): 98%
Daisy (Bellis perennis); day 21
  Plot Area Covered by Daisy Plants (%): 2%
Daisy (Bellis perennis); day 23
  Daisy Necrosis (%): 98%
Daisy (Bellis perennis); day 30
  Plot Area Covered by Daisy Plants (%): 0.5%
[1]; 7 days after spraying, listed as FeHEDTA (0.15% Fe)
  Chickweed Plants (#/0.5 m^2): 8 #/0.5 m^2
[1]; 7 days after spraying, listed as FeHEDTA (0.20% Fe)
  Chickweed Plants (#/0.5 m^2): 4 #/0.5 m^2
[1]; Example 12, text
  numbers of chickweed plants, in words: significantly reduced
[1]; day 0, listed as FeHEDTA (0.15% Fe)
  Chickweed Plants (#/0.5 m^2): 15 #/0.5 m^2
[1]; day 0, listed as FeHEDTA (0.20% Fe)
  Chickweed Plants (#/0.5 m^2): 25 #/0.5 m^2
[1]; listed as FeHEDTA (0.15% Fe)
  Survival of Chickweed Plants (%): 53%
[1]; listed as FeHEDTA (0.20% Fe)
  Survival of Chickweed Plants (%): 16%
White clover; A4 = 4 days after application, 0=no effect, 100=plant death
  Phytotoxicity (%) against white clover: 22%
White clover; A7 = 7 days after application
  Phytotoxicity (%) against white clover: 19%
White clover; A14 = 14 days after application
  Phytotoxicity (%) against white clover: 15%
Broadleaf plantain; listed as FeHEDTA 0.1% Fe
  A7 Phytotoxicity (%) against broadleaf plantain: 9%
Broadleaf plantain; listed as FeHEDTA 0.2% Fe
  A7 Phytotoxicity (%) against broadleaf plantain: 10%
Broadleaf plantain; listed as FeHEDTA 0.4% Fe
  A7 Phytotoxicity (%) against broadleaf plantain: 22%
